# Results taken from US12630534B2 (TAKEDA PHARMACEUTICAL COMPANY LIMITED, priority 2020, dated 2026).
# Biological target: T1, human GPR139 (Homo sapiens, UniProt Q6DWJ6)
# T1 construct: expressed in transfected cells; host or cells: CHO-TREx (Life Technologies) cells, expression induced with doxycycline
# T1 sequence (Q6DWJ6 1-353): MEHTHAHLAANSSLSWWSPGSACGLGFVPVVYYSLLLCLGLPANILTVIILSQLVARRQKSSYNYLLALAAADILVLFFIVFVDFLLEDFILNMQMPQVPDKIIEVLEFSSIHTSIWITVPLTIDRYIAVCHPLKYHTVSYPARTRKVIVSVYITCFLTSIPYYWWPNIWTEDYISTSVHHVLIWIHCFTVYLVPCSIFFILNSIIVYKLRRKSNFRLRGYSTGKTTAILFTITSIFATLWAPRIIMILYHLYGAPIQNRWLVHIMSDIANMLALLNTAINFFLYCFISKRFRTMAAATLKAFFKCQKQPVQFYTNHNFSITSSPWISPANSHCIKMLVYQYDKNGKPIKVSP
# Experiment: Inhibition rate of the amount of IP1 in GPR139-expressed CHO cells (inverse agonist assay, Test Example 2)
# Assay type: cell-based
# Details: CHO, relative value, inhibition rate of Example Compound 2 in Test Example 1 defined as 100%
# Outline: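 IP1 accumulation read by IP-One HTRF after 40 min compound exposure at 37° C in stimulation buffer, 2000 cells/well, GPR139 expression induced the day before with doxycycline. Results given as relative inhibition rate, normalised to a reference compound set at […].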
row,inhibition at 30 µM [%],Compound
1,98,"CCn1cc(Cn2c(C)cn(-c3cc(N4CCO[C@H](C)C4)cc(Cl)c3F)c2=O)cn1 [Example 139, 1-{3-chloro-2-fluoro-5-[(2R)-2-methylmorpholin-4-yl]phenyl}-3-[(1-ethyl-1H-pyrazol-4-yl)methyl]-4-methyl-1,3-dihydro-2H-imidazol-2-one]"
2,99,"CCn1cc(Cn2ccn(-c3cc(N4CCC(F)(F)C4)cc(C(F)(F)F)c3F)c2=O)cn1 [Example 39, 1-[5-(3,3-difluoropyrrolidin-1-yl)-2-fluoro-3-(trifluoromethyl)phenyl]-3-[(1-ethyl-1H-pyrazol-4-yl)methyl]-1,3-dihydro-2H-imidazol-2-one]"
3,101,"CCn1cc(Cn2c(C(F)(F)F)cn(-c3cc(N4CCO[C@H](C)C4)cc(C4CC4(F)F)c3F)c2=O)cn1 (stereo partly drawn) [Example 143, 1-{3-(2,2-difluorocyclopropyl)-2-fluoro-5-[(2R)-2-methylmorpholin-4-yl]phenyl}-3-[(1-ethyl-1H-pyrazol-4-yl)methyl]-4-(trifluoromethyl)-1,3-dihydro-2H-imidazol-2-one]"
4,104,"CCn1cc(Cn2cc(C)n(-c3cc(OC[C@@H]4CCCO4)cc(C(F)(F)F)c3F)c2=O)cn1 [Example 107, 1-[(1-ethyl-1H-pyrazol-4-yl)methyl]-3-[2-fluoro-5-{[(2S)-oxolan-2-yl]methoxy}-3-(trifluoromethyl)phenyl]-4-methyl-1,3-dihydro-2H-imidazol-2-one]"
5,100,"CCn1cc(Cn2ccn(-c3cc(N4CCOC5(CC5)C4)cc(C(F)(F)F)c3F)c2=O)cn1 [Example 43, 1-[(1-ethyl-1H-pyrazol-4-yl)methyl]-3-[2-fluoro-5-(4-oxa-7-azaspiro[2.5]octan-7-yl)-3-(trifluoromethyl)phenyl]-1,3-dihydro-2H-imidazol-2-one]"
6,100,"Cc1cn(Cc2cnn(C(C)C)c2)c(=O)n1-c1cc(C2CC2)cc(N2CCOC(C)(C)C2)n1 [Example 130, 3-[4-cyclopropyl-6-(2,2-dimethylmorpholin-4-yl)pyridin-2-yl]-4-methyl-1-{[1-(propan-2-yl)-1H-pyrazol-4-yl]methyl}-1,3-dihydro-2H-imidazol-2-one]"
7,102,"CCn1cc(Cn2cc(C)n(-c3cc(OCC4CCO4)cc(C(F)(F)F)c3)c2=O)cn1 (centres unmarked) [Example 49, 1-[(1-ethyl-1H-pyrazol-4-yl)methyl]-4-methyl-3-{3-[(oxetan-2-yl)methoxy]-5-(trifluoromethyl)phenyl}-1,3-dihydro-2H-imidazol-2-one]"
8,100,"CCc1nn(-c2cc(N3CCC(F)(F)CC3)cc(C(F)(F)F)c2F)c(=O)n1Cc1cnn(CC)c1 [Example 138, 2-[5-(4,4-difluoropiperidin-1-yl)-2-fluoro-3-(trifluoromethyl)phenyl]-5-ethyl-4-[(1-ethyl-1H-pyrazol-4-yl)methyl]-2,4-dihydro-3H-1,2,4-triazol-3-one]"
9,103,"Cc1cn(Cc2cnn(C(C)C)c2)c(=O)n1-c1cc(C(F)(F)F)cc(N2CCO[C@H](C)C2)n1 [Example 103, 4-Methy-3-{6-[(2R)-2-methylmorpholine-4-yl]-4-(trifluoromethyl)pyridine-2-yl}-1-{[1-(propane-2-yl)-1H-pyrazole-4-yl]methyl}-1,3-dihydro-2H-imidazole-2-one]"
10,99,"CCn1cc(Cn2c(C)cn(-c3nc(N(C)C4CCOCC4)cc(C(F)(F)F)c3Cl)c2=O)cn1 [Example 83, 1-{3-chloro-6-[methyl(oxan-4-yl)amino]-4-(trifluoromethyl)pyridin-2-yl}-3-[(1-ethyl-1H-pyrazol-4-yl)methyl]-4-methyl-1,3-dihydro-2H-imidazol-2-one]"
11,102,"CCn1cc(Cn2cc(C)n(-c3cc(C(F)(F)F)cc(OCC4CCCO4)n3)c2=O)cn1 (centres unmarked) [Example 106, 1-[(1-ethyl-1H-pyrazol-4-yl)methyl]-4-methyl-3-{6-[(oxolan-2-yl)methoxy]-4-(trifluoromethyl)pyridin-2-yl}-1,3-dihydro-2H-imidazol-2-one]"
12,103,"CCn1cc(Cn2cc(C)n(-c3nc(N4CCO[C@H](C)C4)cc(C(F)(F)F)n3)c2=O)cn1 [Example 124, 1-[(1-ethyl-1H-pyrazol-4-yl)methyl]-4-methyl-3-{4-[(2R)-2-methylmorpholin-4-yl]-6-(trifluoromethyl)pyrimidin-2-yl}-1,3-dihydro-2H-imidazol-2-one]"
13,101,"CCn1cc(Cn2ccn(-c3cc(N4CCO[C@H](C)C4)cc(C(F)(F)F)c3Cl)c2=O)cn1 [Example 15, 1-{2-chloro-5-[(2R)-2-methylmorpholin-4-yl]-3-(trifluoromethyl)phenyl}-3-[(1-ethyl-1H-pyrazol-4-yl)methyl]-1,3-dihydro-2H-imidazol-2-one]"
14,100,"CCn1cc(Cn2cc(C)n(-c3cc(N4CCC(F)(F)C4)cc(C(F)(F)F)c3)c2=O)cn1 [Example 24, 3-[3-(3,3-difluoropyrrolidin-1-yl)-5-(trifluoromethyl)phenyl]-1-[(1-ethyl-1H-pyrazol-4-yl)methyl]-4-methyl-1,3-dihydro-2H-imidazol-2-one]"
15,98,"CCn1cc(Cn2ccn(-c3cc(N4CCOC(C)(C)C4)cc(C(F)(F)F)c3F)c2=O)cn1 [Example 12, 1-[5-(2,2-dimethylmorpholin-4-yl)-2-fluoro-3-(trifluoromethyl)phenyl]-3-[(1-ethyl-1H-pyrazol-4-yl)methyl]-1,3-dihydro-2H-imidazol-2-one]"
16,100,"CCn1cc(Cn2ccn(-c3nc(N4CCO[C@H](C)C4)cc(C(F)(F)F)c3F)c2=O)cn1 [Example 26, 1-[(1-ethyl-1H-pyrazol-4-yl)methyl]-3-{3-fluoro-6-[(2R)-2-methylmorpholin-4-yl]-4-(trifluoromethyl)pyridin-2-yl}-1,3-dihydro-2H-imidazol-2-one]"
17,104,"CCn1cc(Cn2cc(C)n(-c3cc(C4CC4)cc(N4CCO[C@H](C)C4)c3)c2=O)cn1 [Example 104, 3-{3-cyclopropyl-5-[(2R)-2-methylmorpholin-4-yl]phenyl}-1-[(1-ethyl-1H-pyrazol-4-yl)methyl]-4-methyl-1,3-dihydro-2H-imidazol-2-one]"
18,97,"CCn1cc(Cn2c(C)cn(-c3cc(N4CCOC(C)(C)C4)cc(C4CC4)c3F)c2=O)cn1 [Example 164, 1-[3-cyclopropyl-5-(2,2-dimethylmorpholin-4-yl)-2-fluorophenyl]-3-[(1-ethyl-1H-pyrazol-4-yl)methyl]-4-methyl-1,3-dihydro-2H-imidazol-2-one]"
19,100,"CCn1cc(Cn2ccn(-c3cc(N(C)C4CCOCC4)cc(C(F)(F)F)c3F)c2=O)cn1 [Example 10, 1-[(1-ethyl-1H-pyrazol-4-yl)methyl]-3-{2-fluoro-5-[methyl(oxan-4-yl)amino]-3-(trifluoromethyl)phenyl}-1,3-dihydro-2H-imidazol-2-one]"
20,101,"CCn1cc(Cn2cc(C)n(-c3cc(OCOC)cc(C(F)(F)F)c3)c2=O)cn1 [Example 48, 1-[(1-ethyl-1H-pyrazol-4-yl)methyl]-3-[3-(methoxymethoxy)-5-(trifluoromethyl)phenyl]-4-methyl-1,3-dihydro-2H-imidazol-2-one]"
21,101,"CCn1cc(Cn2c(Cl)nn(-c3cc(N4CCO[C@H](C)C4)cc(C(F)(F)F)c3F)c2=O)cn1 [Example 155, 5-chloro-4-[(1-ethyl-1H-pyrazol-4-yl)methyl]-2-{2-fluoro-5-[(2R)-2-methylmorpholin-4-yl]-3-(trifluoromethyl)phenyl}-2,4-dihydro-3H-1,2,4-triazol-3-one]"
22,100,"CCn1cc(Cn2c(C)c(C)n(-c3cc(N4CCOC(F)(F)C4)cc(C(F)(F)F)c3F)c2=O)cn1 [Example 70, 1-[5-(2,2-difluoromorpholin-4-yl)-2-fluoro-3-(trifluoromethyl)phenyl]-3-[(1-ethyl-1H-pyrazol-4-yl)methyl]-4,5-dimethyl-1,3-dihydro-2H-imidazol-2-one]"
23,103,"CCn1cc(Cn2ccn(-c3cc(N4CCOC(C)(C)C4)cc(Br)c3F)c2=O)cn1 [Example 146, 1-[3-bromo-5-(2,2-dimethylmorpholin-4-yl)-2-fluorophenyl]-3-[(1-ethyl-1H-pyrazol-4-yl)methyl]-1,3-dihydro-2H-imidazol-2-one]"
24,98,"CCn1cc(Cn2ccn(-c3cc(N4CCC(F)(F)CC4)cc(C4CC4(F)F)c3F)c2=O)cn1 (centres unmarked) [Example 156, 1-[3-(2,2-difluorocyclopropyl)-5-(4,4-difluoropiperidin-1-yl)-2-fluorophenyl]-3-[(1-ethyl-1H-pyrazol-4-yl)methyl]-1,3-dihydro-2H-imidazol-2-one]"
25,105,"CC(C)n1cc(Cn2ccn(-c3cc(C(F)(F)F)cc(N4CCO[C@H](C)C4)n3)c2=O)cn1 [Example 102, 1-{6-[(2R)-2-methylmorpholin-4-yl]-4-(trifluoromethyl)pyridin-2-yl}-3-{[1-(propan-2-yl)-1H-pyrazol-4-yl]methyl}-1,3-dihydro-2H-imidazol-2-one]"

# Same assay, conditions: relative value, inhibition rate of Example Compound 2 in Test Example 1 defined as 100%, 30 µM
row,Inhibition Rate at 30 μM [%],Compound
1,101,"CCn1cc(Cn2cc(C)n(-c3cc(C(F)(F)F)cc(OCC4CCCO4)n3)c2=O)cn1 (centres unmarked) [Example 109, 1-[(1-ethyl-1H-pyrazol-4-yl)methyl]-4-methyl-3-{6-[(oxolan-2-yl)methoxy]-4-(trifluoromethyl)pyridin-2-yl}-1,3-dihydro-2H-imidazol-2-one]"
